# Data taken from the supplement of paper PMC10307832.
# Columns and labels:
# Assay in all cases: relative viability (nuclei count vs DMSO), 5 days (fraction); higher = more cells survive
# [1] = tested on: NCI-H2170
# How it was run: (§1)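 After 5 days of treatment, lung cancer cells in 1536-well plates were fixed and stained in a single step (final 0.05% Triton X-100, 1% formaldehyde, 1 ug/ml Hoechst) and their nuclei counted on 4× images. Treatment had been applied by pin tool the day after seeding as one drug alone or as a fixed anchor-drug dose with five library-drug doses (not always all listed) in √10 steps. Relative viability is the nuclei count of treated wells divided by that of vehicle wells, and values are medians of duplicate plates.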
# [2] = tested on: NCI-H1993
# How it was run: as §1
# [3] = tested on: NCI-H2087
# How it was run: as §1
# [4] = tested on: LCLC-103H
# How it was run: as §1
# [5] = tested on: COR-L 105
# How it was run: as §1
# [6] = tested on: HCC-44
# How it was run: as §1
# [7] = tested on: LOU-NH91
# How it was run: as §1
# [8] = tested on: NCI-H358
# How it was run: as §1
# [9] = tested on: NCI-H1915
# How it was run: as §1
# [10] = tested on: SK-MES-1
# How it was run: as §1
# [11] = tested on: SW 1573
# How it was run: as §1
compound,measurement,setting,value
Cc1cn(-c2cc(NC(=O)c3ccc(C)c(Nc4nccc(-c5cccnc5)n4)c3)cc(C(F)(F)F)c2)cn1 [Nilotinib] + N=C(N)NC(=N)NCCc1ccccc1 [Phenformin] (partner 250 µM),relative viability,[1]; first compound 0.01 µM,0.409
same,relative viability,[1]; first compound 0.03162 µM,0.394
same,relative viability,[1]; first compound 0.1 µM,0.363
same,relative viability,[2]; first compound 0.001 µM,0.554
same,relative viability,[2]; first compound 0.003162 µM,0.55
same,relative viability,[2]; first compound 0.01 µM,0.522
same,relative viability,[2]; first compound 0.03162 µM,0.482
same,relative viability,[2]; first compound 0.1 µM,0.701
same,relative viability,[3]; first compound 0.001 µM,0.403
same,relative viability,[3]; first compound 0.003162 µM,0.518
same,relative viability,[3]; first compound 0.01 µM,0.519
same,relative viability,[3]; first compound 0.03162 µM,0.301
same,relative viability,[3]; first compound 0.1 µM,0.215
same,relative viability,[4]; first compound 0.001 µM,0.326
same,relative viability,[4]; first compound 0.003162 µM,0.307
same,relative viability,[4]; first compound 0.01 µM,0.338
same,relative viability,[4]; first compound 0.03162 µM,0.333
same,relative viability,[4]; first compound 0.1 µM,0.288
same,relative viability,[5]; first compound 0.001 µM,0.428
same,relative viability,[5]; first compound 0.003162 µM,0.47
same,relative viability,[5]; first compound 0.01 µM,0.581
same,relative viability,[5]; first compound 0.03162 µM,0.409
same,relative viability,[5]; first compound 0.1 µM,0.438
same,relative viability,[6]; first compound 0.001 µM,0.154
same,relative viability,[6]; first compound 0.003162 µM,0.145
same,relative viability,[6]; first compound 0.01 µM,0.186
same,relative viability,[6]; first compound 0.03162 µM,0.179
same,relative viability,[6]; first compound 0.1 µM,0.166
same,relative viability,[7]; first compound 0.001 µM,0.752
same,relative viability,[7]; first compound 0.003162 µM,0.736
same,relative viability,[7]; first compound 0.01 µM,0.861
same,relative viability,[7]; first compound 0.03162 µM,0.663
same,relative viability,[7]; first compound 0.1 µM,0.75
same,relative viability,[8]; first compound 0.001 µM,0.317
same,relative viability,[8]; first compound 0.003162 µM,0.453
same,relative viability,[8]; first compound 0.01 µM,0.394
same,relative viability,[8]; first compound 0.03162 µM,0.259
same,relative viability,[8]; first compound 0.1 µM,0.217
same,relative viability,[9]; first compound 0.001 µM,0.372
same,relative viability,[9]; first compound 0.003162 µM,0.394
same,relative viability,[9]; first compound 0.01 µM,0.413
same,relative viability,[9]; first compound 0.03162 µM,0.372
same,relative viability,[9]; first compound 0.1 µM,0.381
same,relative viability,[10]; first compound 0.001 µM,0.614
same,relative viability,[10]; first compound 0.003162 µM,0.734
same,relative viability,[10]; first compound 0.01 µM,0.74
same,relative viability,[10]; first compound 0.03162 µM,0.566
same,relative viability,[10]; first compound 0.1 µM,0.554
same,relative viability,[11]; first compound 0.001 µM,0.405
same,relative viability,[11]; first compound 0.003162 µM,0.445
same,relative viability,[11]; first compound 0.01 µM,0.412
same,relative viability,[11]; first compound 0.03162 µM,0.179
same,relative viability,[11]; first compound 0.1 µM,0.289
